Experiment [1] deals with T1, Threonine--tRNA ligase, mitochondrial (Homo sapiens) (UniProt Q9BW92).
T1 sequence (whole entry): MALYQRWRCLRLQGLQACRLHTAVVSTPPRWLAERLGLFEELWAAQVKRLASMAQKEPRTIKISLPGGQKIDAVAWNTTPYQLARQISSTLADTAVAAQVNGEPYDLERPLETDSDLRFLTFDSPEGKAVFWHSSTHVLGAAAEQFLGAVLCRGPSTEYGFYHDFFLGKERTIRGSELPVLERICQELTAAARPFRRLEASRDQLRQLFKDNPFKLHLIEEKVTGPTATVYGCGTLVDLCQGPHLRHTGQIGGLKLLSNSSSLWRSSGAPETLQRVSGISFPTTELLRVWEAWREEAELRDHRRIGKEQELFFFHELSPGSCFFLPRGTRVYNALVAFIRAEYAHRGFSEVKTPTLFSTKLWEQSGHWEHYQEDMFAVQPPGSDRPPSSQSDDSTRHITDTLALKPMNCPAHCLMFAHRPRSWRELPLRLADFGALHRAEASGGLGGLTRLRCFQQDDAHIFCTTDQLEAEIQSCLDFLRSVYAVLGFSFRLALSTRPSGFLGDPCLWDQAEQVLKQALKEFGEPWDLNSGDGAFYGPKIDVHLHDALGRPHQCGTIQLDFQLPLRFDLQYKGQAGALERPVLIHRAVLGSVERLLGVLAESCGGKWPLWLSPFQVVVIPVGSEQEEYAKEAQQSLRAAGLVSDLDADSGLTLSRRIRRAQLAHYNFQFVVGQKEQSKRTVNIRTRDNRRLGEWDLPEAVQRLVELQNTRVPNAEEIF
Nature of the experiment: Inhibition of threonyl tRNA synthetase (unknown origin) assessed as depletion of tRNAs at 50 uM by SToPs assay.

The next experiment concerns HeLa. Nature of the experiment: Mitotic arrest in human HeLa cells assessed as accumulation at […] at 0.98 to 30 uM using pHH3 staining-based fluorescent assay. Format: functional, cell-based.
Another experiment deals with HT-29. Nature of the experiment: Growth inhibition of human HT-29 cells. Type of experiment: functional, cell-based.
A further experiment deals with MDA-MB-361. Nature of the experiment: Growth inhibition of human MDA-MB-361 cells. Type of experiment: functional, cell-based.
The subject of the next experiment is NCI-N87. Nature of the experiment: Growth inhibition of human NCI-N87 cells. Type of experiment: functional, cell-based.

Active and inactive are the calls of the source. The calls are words filed in the database; no cut-off is given here.

Broadly, the IC50 is the point on the concentration scale where inhibition reaches its midpoint. Low readings indicate greater potency in that assay, high ones weaker potency in that assay. With `C[C@@H]1C[C@H](C)C[C@H](C)[C@@H](O)CC(=O)O[C@H]([C@@H]2CCC[C@H]2C(=O)O)C/C=C/C=C(/CN)[C@H](O)[C@@H](C)C1`, in experiment [1], the inhibition entry was “Active”. In addition, the Activity result in the experiment with HeLa was “Dose-dependent effect”. Besides, the IC50 in the experiment with HT-29 is 2 µM; with MDA-MB-361 it was 2.2 µM; in the experiment on NCI-N87, 1.3 µM.

Consider `CC(=O)NC/C1=C/C=C/C[C@@H]([C@@H]2CCC[C@H]2C(=O)O)OC(=O)C[C@H](O)[C@@H](C)C[C@@H](C)C[C@@H](C)C[C@H](C)[C@H]1O`, for which the inhibition result in experiment [1] is “inactive”. Moreover, the result with HeLa was inactive.

For the molecule `C[C@@H]1C[C@H](C)C[C@H](C)[C@@H](O)CC(=O)O[C@H]([C@@H]2CCC[C@H]2C(=O)O)C/C=C/C=C(/C#N)[C@H](O)[C@@H](C)C1` [BORRELIDIN], the IC50 in the experiment with HT-29 worked out at 0.92 µM; in the experiment with MDA-MB-361, 0.42 µM; in the experiment on NCI-N87 it was 0.05 µM.

The record behind these values is ChEMBL document CHEMBL3352183, “Borrelidin B: isolation, biological activity, and implications for nitrile biosynthesis” (J Nat Prod, 2014).
